This note sets out measurements from EP1401829B1, “NOVEL HETEROCYCLIC ANTIBACTERIAL COMPOUNDS” (Microbiotix, Inc., priority 2001, dated 2002).

Values after ≈ are worked out from the molar mass of the structure shown.

The subject of one assay is E. coli. Briefly: Minimal Inhibitory Concentration (MIC) determination, 96 well plates. The note with it: Escherichia coli; HBI medium, 16 to 18 hours at 37°C; read-out: MIC (µg/ml) E. coli. It counts as cell-based, Escherichia coli. The procedure:
(§1) The following methods were used to characterize representative compounds. Minimal Inhibitory Concentration (MIC) determinations. MIC values were determined in 96 well plates, with bacterial growth monitored at OD 600 nm in 200µl following an initial bacterial seeding at approximately 1x10^5 colony forming units (CFU)/ml. Each drug is evaluated at five concentrations, with five data points at each dilution. MIC values (µg/ml) were determined against actively growing cultures in Heart-Brain Infusion (HBI) medium. Cell growth in cultures supplemented with a test compound was calculated as a percent of control at OD 600 nm after 16 to 18 hours at 37°C. This plate format conserves test compound and provides precise, quantitative data with low standard deviation determinations. Polymerase IIIC (Pol IIIC) assay. DNA polymerase activity (or inhibition thereof) was measured in a 96-well plate format. B. subtilis Pol IIIC was isolated as described by Hammond and Brown (Protein Expr. Purif., 3: 65-70 (1992)). Each 25 µl assay contained 30 mM Tris, pH 7.5, 10 mM magnesium acetate, 4 mM dithiothreitol, 20% glycerol, with 25 µM dATP, dCTP, dGTP and 10 µM dTTP (^3H-labelled at 1.44 Ci/mmole) and 0.4 mg/ml activated calf thymus DNA as substrates, as described previously (see Barnes et al, op. cit). Assays were initiated by the addition of 0.025 to 0.06 units of enzyme 1 unit is the amount required to incorporate 250 pmoles of [^3H] dTMP in a standard assay), incubated for 10 minutes at 30°C and terminated by the addition of 200 µl of cold 10% trichloroacetic acid (TCA),10 mM sodium pyrophosphate. Precipitated labeled DNA was collected on glass fiber filter plates, washed, dried, and counted in a liquid scintillation counter. Determination of Ki values. DNA polymerase activity was measured in a 96-well plate format in the absence of dGTP or dATP, depending on the structure of the test compound. Each 25 µl assay contained 30 mM Tris, pH 7.5, 10 mM magnesium acetate, 4 mM dithiothreitol, 20% glycerol, with 25 µM dATP, dCTP, and 10 µM dTTP (^3H-labelled at 1.44 Ci/mmole) and 0.4 mg/ml activated calf thymus DNA as substrates, as described previously. To each well were added 2 µl of compound solution to give final concentrations ranging from 20 - 0.027 µg/ml in the assay. Assays were initiated by the addition of 0.025 to 0.06 units of enzyme (1 unit is the amount required to incorporate 250 pmoles of [^3H] dTMP in a standard assay), incubated for 10 minutes at 30 °C and terminated by the addition of 200 µl of cold 10% trichloroacetic acid, 10 mM sodium pyrophosphate. Precipitated labeled DNA was collected on glass fiber filter plates, washed, dried, and counted in a liquid scintillation counter. Ki is the concentration of test compound that reduces the control polymerase IIIC activity by 50 percent.
(§2) MIC values were determined for the Gram positive bacteria Bacillus subtilis, Staphylococcus aureus (two strains), Enterococcus fecalis, Enterococcus fecium, and for the Gram negative bacterium Escherichia coli.

Another assay relates to B. subtilis. The assay is described as above. Conditions: Bacillus subtilis; HBI medium, 16 to 18 hours at 37°C; read-out: MIC (µg/ml) B. subtilis. It counts as cell-based, Bacillus subtilis. As for the experimental part:
as §1, with “This plate format conserves test compound and provides precise, quantitative data with low standard deviation determinations.” left out, “To each well were added 2 µl of compound solution to give final concentrations ranging from 20 - 0.027 µg/ml in the assay.” left out
as §2

The next assay deals with S.aureus (Smith). Described as above. It counts as cell-based, Staphylococcus aureus. Conditions: Staphylococcus aureus; HBI medium, 16 to 18 hours at 37°C; read-out: MIC (µg/ml) S.aureus (Smith). The procedure: as §1, with “This plate format conserves test compound and provides precise, quantitative data with low standard deviation determinations.” left out, “To each well were added 2 µl of compound solution to give final concentrations ranging from 20 - 0.027 µg/ml in the assay.” left out
as §2

Another assay deals with S. aureus. The description is as above. The note with it: Staphylococcus aureus; HBI medium, 16 to 18 hours at 37°C; read-out: MIC (µg/ml) S. aureus. It counts as cell-based, Staphylococcus aureus. The procedure:
as §1, §2

The test system of another assay is E. fecalis. The assay is described as above. It counts as cell-based, Enterococcus fecalis. Conditions: Enterococcus; HBI medium, 16 to 18 hours at 37°C; read-out: MIC (µg/ml) E. fecalis. As for the experimental part: as §1, with “This plate format conserves test compound and provides precise, quantitative data with low standard deviation determinations.” left out, “To each well were added 2 µl of compound solution to give final concentrations ranging from 20 - 0.027 µg/ml in the assay.” left out
as §2

For the next assay, the system named is E. fecium. Described as above. It counts as cell-based, Enterococcus fecium. The note with it: Enterococcus; HBI medium, 16 to 18 hours at 37°C; read-out: MIC (µg/ml) E. fecium. As for the experimental part:
as §1, with “This plate format conserves test compound and provides precise, quantitative data with low standard deviation determinations.” left out, “To each well were added 2 µl of compound solution to give final concentrations ranging from 20 - 0.027 µg/ml in the assay.” left out
as §2

The next assay deals with T1, B. subtilis Pol IIIC (Bacillus subtilis, UniProt P13267).
T1 construct: made in house
As to the kind of experiment: Polymerase IIIC (Pol IIIC) assay, determination of Ki values. The note with it: Ki (µM) Pol IIIC, assay in absence of dGTP or dATP; Ki is the concentration that reduces control polymerase IIIC activity by 50 percent. It counts as biochemical. The procedure:
as §1, with “This plate format conserves test compound and provides precise, quantitative data with low standard deviation determinations.” left out, “To each well were added 2 µl of compound solution to give final concentrations ranging from 20 - 0.027 µg/ml in the assay.” left out

T1 sequence (P13267 whole entry): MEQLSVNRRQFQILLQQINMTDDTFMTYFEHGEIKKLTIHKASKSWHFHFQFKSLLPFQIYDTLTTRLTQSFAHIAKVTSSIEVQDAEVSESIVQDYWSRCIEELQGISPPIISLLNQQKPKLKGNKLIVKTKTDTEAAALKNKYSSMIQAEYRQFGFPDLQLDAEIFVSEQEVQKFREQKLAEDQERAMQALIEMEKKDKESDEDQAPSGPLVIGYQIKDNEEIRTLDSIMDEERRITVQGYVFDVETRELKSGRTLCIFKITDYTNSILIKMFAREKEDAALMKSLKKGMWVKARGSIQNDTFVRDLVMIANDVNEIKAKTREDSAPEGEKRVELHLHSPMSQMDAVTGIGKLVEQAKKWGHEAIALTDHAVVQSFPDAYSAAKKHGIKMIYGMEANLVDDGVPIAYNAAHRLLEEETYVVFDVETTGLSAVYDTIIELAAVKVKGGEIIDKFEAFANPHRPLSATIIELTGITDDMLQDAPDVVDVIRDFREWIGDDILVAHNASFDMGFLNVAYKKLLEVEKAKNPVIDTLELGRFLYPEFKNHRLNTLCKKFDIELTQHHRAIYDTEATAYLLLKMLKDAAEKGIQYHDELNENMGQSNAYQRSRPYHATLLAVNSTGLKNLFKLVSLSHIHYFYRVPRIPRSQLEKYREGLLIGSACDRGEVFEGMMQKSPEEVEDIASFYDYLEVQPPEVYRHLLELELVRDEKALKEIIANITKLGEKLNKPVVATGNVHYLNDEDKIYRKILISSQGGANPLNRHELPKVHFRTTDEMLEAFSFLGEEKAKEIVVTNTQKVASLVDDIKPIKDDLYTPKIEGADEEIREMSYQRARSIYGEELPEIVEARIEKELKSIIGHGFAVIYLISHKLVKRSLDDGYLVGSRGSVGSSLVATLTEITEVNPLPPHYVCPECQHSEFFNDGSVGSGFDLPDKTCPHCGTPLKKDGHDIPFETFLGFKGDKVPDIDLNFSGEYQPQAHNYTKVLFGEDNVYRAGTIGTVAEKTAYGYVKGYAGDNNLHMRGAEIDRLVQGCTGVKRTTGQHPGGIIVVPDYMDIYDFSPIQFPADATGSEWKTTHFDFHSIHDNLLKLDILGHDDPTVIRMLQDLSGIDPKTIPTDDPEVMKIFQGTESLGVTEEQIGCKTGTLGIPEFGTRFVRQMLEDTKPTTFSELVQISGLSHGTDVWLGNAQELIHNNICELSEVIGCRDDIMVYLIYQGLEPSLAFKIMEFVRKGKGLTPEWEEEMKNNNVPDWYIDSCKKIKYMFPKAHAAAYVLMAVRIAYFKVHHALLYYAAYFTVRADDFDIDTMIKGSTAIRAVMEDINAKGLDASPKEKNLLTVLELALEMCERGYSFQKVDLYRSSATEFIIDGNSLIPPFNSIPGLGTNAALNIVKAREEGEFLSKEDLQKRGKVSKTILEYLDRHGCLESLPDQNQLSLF

By Ki is commonly meant a dissociation constant, usually derived from enzyme kinetics or from competition with a known ligand. In the case of `Cc1ccc(Nc2cc(=O)n(CCCCN3CCN(c4cc5c(cc4F)c(=O)c(C(=O)O)cn5C4CC4)CC3)c(=O)[nH]2)cc1C` [Compound 65, 3-{4-[1-(1-cyclopropyl-3-carboxy-4-oxo-6-fluoro-7-quinolyl)-4-piperazinyl]butyl}-6-(3,4-dimethylanilino)uracil], the MIC in the assay on E. coli was found to be 10 µg/mL (≈ 16.2 µM); in the assay on B. subtilis, 0.23 µg/mL (≈ 0.373 µM); with S.aureus (Smith), 0.46 µg/mL (≈ 0.746 µM); in the assay with S. aureus it was 0.95 µg/mL (≈ 1.54 µM); with E. fecalis, 1.87 µg/mL (≈ 3.03 µM); with E. fecium, 1.87 µg/mL (≈ 3.03 µM). At B. subtilis Pol IIIC, this compound displayed a Ki of 0.095 µM.

Consider `CCc1cccc(Nc2cc(=O)n(CCCCN3CCN(c4cc5c(cc4F)c(=O)c(C(=O)O)cn5C4CC4)CC3)c(=O)[nH]2)c1` [Compound 66, 3-{4-[1-(1-cyclopropyl-3-carboxy-4-oxo-6-fluoro-7-quinolyl)-4-piperazinyl]butyl}-6-(3-ethylanilino)uracil], for which the MIC with E. coli was 6.1 µg/mL (≈ 9.89 µM); with B. subtilis, 0.313 µg/mL (≈ 0.508 µM); in the assay on S.aureus (Smith), 0.625 µg/mL (≈ 1.01 µM); with S. aureus, 0.95 µg/mL (≈ 1.54 µM); with E. fecalis, 1.25 µg/mL (≈ 2.03 µM); in the assay on E. fecium, 3.7 µg/mL (≈ 6 µM). This compound yielded a Ki at B. subtilis Pol IIIC of 0.26 µM.

Regarding `O=C(O)c1cn(C2CC2)c2cc(N3CCN(CCCCn4c(=O)cc(Nc5ccc6c(c5)CCC6)[nH]c4=O)CC3)c(F)cc2c1=O` [Compound 67, 3-{4-[1-(1-cyclopropyl-3-carboxy-4-oxo-6-fluoro-7-quinolyl)-4-piperazinyl]butyl}-6-(5-indanylamino)uracil], the MIC in the assay on E. coli was found to be 10 µg/mL (≈ 15.9 µM); in the assay with B. subtilis, 0.23 µg/mL (≈ 0.366 µM); in the assay on S.aureus (Smith), 0.313 µg/mL (≈ 0.498 µM); in the assay with S. aureus, 0.625 µg/mL (≈ 0.994 µM); with E. fecalis it was 1.25 µg/mL (≈ 1.99 µM); in the assay on E. fecium it was 2.5 µg/mL (≈ 3.98 µM). Besides, the affinity at B. subtilis Pol IIIC, expressed as Ki, was 0.034 µM.

Take `O=C(O)c1cn(C2CC2)c2cc(N3CCN(CCCCn4c(=O)cc(NCc5ccc(Cl)c(Cl)c5)[nH]c4=O)CC3)c(F)cc2c1=O` [Compound 68, 3-{4-[1-(1-cyclopropyl-3-carboxy-4-oxo-6-fluoro-7-quinolyl)-4-piperazinyl]butyl}-6-(3,4-dichlorobenzylamino)uracil]: the MIC is 12.5 µg/mL (≈ 18.6 µM) in the assay on E. coli; 0.95 µg/mL (≈ 1.41 µM) in the assay on B. subtilis; 0.625 µg/mL (≈ 0.931 µM) in the assay on S.aureus (Smith); 1.25 µg/mL (≈ 1.86 µM) with S. aureus; 40 µg/mL (≈ 59.6 µM) in the assay on E. fecalis; 1.25 µg/mL (≈ 1.86 µM) with E. fecium. Besides, affinity at B. subtilis Pol IIIC was put at a Ki of 0.047 µM.

Regarding `CCc1cc(Nc2cc(=O)n(CCCCN3CCN(c4cc5c(cc4F)c(=O)c(C(=O)O)cn5C4CC4)C(C)C3)c(=O)[nH]2)ccc1C` (stereo not drawn) [Compound 69, 3-{4-[1-(1-cyclopropyl-3-carboxy-4-oxo-6-fluoro-7-quinolyl)-2-methyl-4-piperazinyl]butyl}-6-(3-ethyl-4-methylanilino)uracil], the MIC with E. coli is 30 µg/mL (≈ 46.5 µM); in the assay with B. subtilis it was 0.23 µg/mL (≈ 0.357 µM); in the assay with S.aureus (Smith), 0.46 µg/mL (≈ 0.713 µM); with S. aureus, 0.625 µg/mL (≈ 0.969 µM); in the assay on E. fecalis, 0.95 µg/mL (≈ 1.47 µM); with E. fecium, 1.25 µg/mL (≈ 1.94 µM). Also, the inhibitory constant (Ki) on B. subtilis Pol IIIC was found to be 0.026 µM.

Consider `CCc1cc(Nc2cc(=O)n(CCCCN3CCN(c4c(F)cc5c(=O)c(C(=O)O)cn(C6CC6)c5c4F)C[C@@H]3C)c(=O)[nH]2)ccc1C` [Compound 71, (S)-3-{4-[1-(1-cyclopropyl-3-carboxy-4-oxo-6,8-difluoro-7-quinolyl)-3-methyl-4-piperazinyl]butyl}-6-(3-ethyl-4-methylanilino)uracil], for which the MIC is 5 µg/mL (≈ 7.54 µM) in the assay with E. coli; 0.156 µg/mL (≈ 0.235 µM) with B. subtilis; 0.156 µg/mL (≈ 0.235 µM) in the assay on S.aureus (Smith); 0.313 µg/mL (≈ 0.472 µM) with S. aureus; 1.25 µg/mL (≈ 1.89 µM) in the assay on E. fecalis; 1.87 µg/mL (≈ 2.82 µM) in the assay with E. fecium. Besides, the Ki at B. subtilis Pol IIIC amounted to 0.007 µM.

Turning to `CCc1cc(Nc2cc(=O)n(CCCCN3CCN(c4c(F)cc5c(=O)c(C(=O)O)cn(C6CC6)c5c4F)C[C@H]3C)c(=O)[nH]2)ccc1C` [Compound 72, (R)-3-{4-[1-(1-cyclopropyl-3-carboxy-4-oxo-6,8-difluoro-7-quinolyl)-3-methyl-4-piperazinyl]butyl}-6-(3-ethyl-4-methylanilino)uracil], the MIC in the assay on E. coli is 20 µg/mL (≈ 30.2 µM); in the assay with B. subtilis it was 0.156 µg/mL (≈ 0.235 µM); in the assay on S.aureus (Smith), 0.625 µg/mL (≈ 0.943 µM); with S. aureus, 0.625 µg/mL (≈ 0.943 µM); in the assay on E. fecalis it was 1.25 µg/mL (≈ 1.89 µM); in the assay with E. fecium, 1.25 µg/mL (≈ 1.89 µM). The compound also yielded a Ki at B. subtilis Pol IIIC of 0.004 µM.

For the compound `CCc1cc(Nc2ccc(CCCCN3CCN(c4cc5c(cc4F)c(=O)c(C(=O)O)cn5CC)CC3)c(=O)[nH]2)ccc1C` [Compound 78, 3-{4-[1-(1-ethyl-3-carboxy-4-oxo-6-fluoro-7-quinolyl)-4-piperazinyl]butyl}-6-(3-ethyl-4-methylanilino)-2-pyridone], the MIC in the assay on E. coli is over 80 µg/mL; with B. subtilis it was 0.625 µg/mL (≈ 1.04 µM); in the assay with S.aureus (Smith), 2.5 µg/mL (≈ 4.15 µM); with S. aureus, 1.25 µg/mL (≈ 2.08 µM); in the assay on E. fecalis, 5 µg/mL (≈ 8.31 µM); with E. fecium, 5 µg/mL (≈ 8.31 µM). The same compound returned a Ki on B. subtilis Pol IIIC of 2.4 µM.

Turning to `CCc1cc(Nc2cc(=O)n(CCCCN3CCN(c4ncc5c(=O)c(C(=O)O)cn(CC)c5n4)CC3)c(=O)[nH]2)ccc1C` [Compound 79, 3-{4-[1-(1-ethyl-3-carboxy-4-oxo-6,8-diaza-7-quinolyl)-4-piperazinyl]butyl}-6-(3-ethyl-4-methylanilino)uracil], the MIC with E. coli is over 80 µg/mL; with B. subtilis, 0.156 µg/mL (≈ 0.259 µM); with S.aureus (Smith), 0.95 µg/mL (≈ 1.58 µM); in the assay with S. aureus, 1.25 µg/mL (≈ 2.07 µM); with E. fecalis, 2.5 µg/mL (≈ 4.15 µM); with E. fecium, 3.7 µg/mL (≈ 6.14 µM). This compound showed a Ki on B. subtilis Pol IIIC of 0.028 µM.
